Patent US20070196866A1, “Modulators of ion channel trpa1” (IRM LLC, priority 2004, published 2007)

How the values were obtained:
Assay type in all cases: cell-based
TRPV1 [1] = assay: FLIPR calcium assay, TRPV1-expressing CHO cells; details: 2 mM
From the text: We then tested these compounds against TRPM8 and TRPV1.

mouse TRPA1 = biological target: T1, mouse TRPA1 (Mus musculus, UniProt Q8BLA8); assay: FLIPR intracellular calcium assay, mouse TRPA1-expressing CHO cells
T1 construct: expressed in transfected cells; host or cells: CHO cells
T1 sequence (Q8BLA8 whole entry): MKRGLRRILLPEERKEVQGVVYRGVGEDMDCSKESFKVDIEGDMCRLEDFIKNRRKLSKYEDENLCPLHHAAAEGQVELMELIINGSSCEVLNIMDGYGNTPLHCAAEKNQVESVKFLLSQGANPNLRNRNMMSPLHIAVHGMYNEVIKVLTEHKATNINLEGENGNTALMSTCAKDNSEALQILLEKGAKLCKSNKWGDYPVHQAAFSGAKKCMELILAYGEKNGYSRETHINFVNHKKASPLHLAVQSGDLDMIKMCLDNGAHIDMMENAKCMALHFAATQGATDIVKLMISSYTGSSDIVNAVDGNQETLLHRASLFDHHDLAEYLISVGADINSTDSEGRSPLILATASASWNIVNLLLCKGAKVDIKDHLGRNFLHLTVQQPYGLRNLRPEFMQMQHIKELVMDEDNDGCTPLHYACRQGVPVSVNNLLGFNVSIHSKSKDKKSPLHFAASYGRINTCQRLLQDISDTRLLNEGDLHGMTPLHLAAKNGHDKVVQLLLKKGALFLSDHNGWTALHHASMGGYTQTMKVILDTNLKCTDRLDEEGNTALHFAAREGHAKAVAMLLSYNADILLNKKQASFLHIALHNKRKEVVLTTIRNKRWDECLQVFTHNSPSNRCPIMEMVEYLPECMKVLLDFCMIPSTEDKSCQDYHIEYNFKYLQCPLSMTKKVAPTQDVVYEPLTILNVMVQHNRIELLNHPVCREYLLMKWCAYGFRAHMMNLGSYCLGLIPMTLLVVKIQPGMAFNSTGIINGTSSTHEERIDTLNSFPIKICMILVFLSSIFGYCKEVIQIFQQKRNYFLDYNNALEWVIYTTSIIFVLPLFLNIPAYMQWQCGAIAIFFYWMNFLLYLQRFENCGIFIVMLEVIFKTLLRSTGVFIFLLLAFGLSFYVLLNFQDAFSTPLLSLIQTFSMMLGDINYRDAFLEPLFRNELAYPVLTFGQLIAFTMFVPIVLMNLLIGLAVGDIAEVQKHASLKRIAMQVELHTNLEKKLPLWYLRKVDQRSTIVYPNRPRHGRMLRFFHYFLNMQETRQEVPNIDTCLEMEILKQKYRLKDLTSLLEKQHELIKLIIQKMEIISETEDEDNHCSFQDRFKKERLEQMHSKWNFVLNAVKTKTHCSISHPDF

adult rat DRG neurons = assay: Calcium imaging of cultured adult rat DRG neurons
From the text: To further test this hypothesis, and to find out if the pungent compounds described above activate TRPA1 specifically, we performed calcium imaging of adult rat DRG neurons in response to cold, menthol, cinnamaldehyde, allyl isothiocyanate, and bradykinin. […] To a large extent, cinnamaldehyde and menthol activated mutually exclusive populations of cold-responsive neurons, as our model would predict. Allyl isothiocyanate appeared less specific as it activated 63% of the cold-responsive population (including a large overlap with menthol) and 12% of the cold-insensitive population. We have used 1.6 times the EC50 values of cinnamaldehyde and allyl isothiocyanate to enable us to directly compare DRG response profiles to these compounds. […] There were no significant differences in profiles of cinnamaldehyde and allyl isothiocyanate between cultures in the presence of 1 and 100 ng/ml of NGF.
In addition to the pungent sensory compounds, we have shown that BK can activate TRPA1.
To test if garlic extracts and allicin specifically activate TRPA1 in native neurons, we performed calcium imaging of adult rat DRG neurons. […] Addition of allicin or garlic extract to cultured rat DRG neurons activated a specific population of neurons.

mTRPA1 = biological target: T2, mTRPA1 (Mus musculus, UniProt Q8BLA8); assay: Ratiometric calcium imaging of CHO cells expressing mTRPA1
T2 construct: expressed in transfected cells; host or cells: CHO cells
T2 sequence (Q8BLA8 whole entry): as above

TRPA1 [2] = biological target: T3, TRPA1 (Homo sapiens, UniProt O75762); assay: FLIPR dose response, hTRPA1; parameters: expressed in transfected cells
Target sequence in this assay (O75762 whole entry): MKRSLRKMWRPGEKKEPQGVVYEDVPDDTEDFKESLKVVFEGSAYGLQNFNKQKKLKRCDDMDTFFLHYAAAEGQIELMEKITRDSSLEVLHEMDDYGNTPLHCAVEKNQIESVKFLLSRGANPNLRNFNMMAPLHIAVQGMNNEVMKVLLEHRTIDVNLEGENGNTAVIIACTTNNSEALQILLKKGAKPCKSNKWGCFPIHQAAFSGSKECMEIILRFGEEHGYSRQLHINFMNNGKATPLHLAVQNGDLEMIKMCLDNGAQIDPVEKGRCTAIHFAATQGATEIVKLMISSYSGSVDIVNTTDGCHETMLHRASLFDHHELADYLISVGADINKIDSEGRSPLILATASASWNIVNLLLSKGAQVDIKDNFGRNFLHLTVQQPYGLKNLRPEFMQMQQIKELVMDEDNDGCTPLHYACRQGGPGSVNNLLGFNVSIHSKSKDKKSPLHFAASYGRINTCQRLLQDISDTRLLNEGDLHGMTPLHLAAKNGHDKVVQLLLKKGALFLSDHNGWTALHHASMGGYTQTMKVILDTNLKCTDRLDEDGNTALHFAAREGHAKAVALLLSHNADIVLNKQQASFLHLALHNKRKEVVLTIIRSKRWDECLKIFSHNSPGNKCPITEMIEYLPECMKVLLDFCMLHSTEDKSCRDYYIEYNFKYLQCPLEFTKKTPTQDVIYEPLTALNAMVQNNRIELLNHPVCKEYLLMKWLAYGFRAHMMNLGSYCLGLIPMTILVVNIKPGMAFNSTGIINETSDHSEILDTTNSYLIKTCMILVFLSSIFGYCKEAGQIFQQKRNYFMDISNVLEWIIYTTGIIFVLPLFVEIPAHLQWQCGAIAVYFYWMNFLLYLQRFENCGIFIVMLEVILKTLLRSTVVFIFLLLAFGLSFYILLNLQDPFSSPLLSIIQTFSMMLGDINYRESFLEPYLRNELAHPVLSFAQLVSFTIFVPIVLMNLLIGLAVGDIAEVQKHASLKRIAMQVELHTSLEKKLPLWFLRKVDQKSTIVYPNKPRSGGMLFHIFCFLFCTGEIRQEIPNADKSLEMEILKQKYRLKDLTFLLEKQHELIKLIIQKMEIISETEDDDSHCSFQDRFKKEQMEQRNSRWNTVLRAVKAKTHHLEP

TRPV1 [3] = assay: Calcium imaging of TRPV1-expressing CHO cells
TRPA1 [4] = biological target: T3, TRPA1; assay: Electrophysiological recording of TRPA1-expressing oocytes; parameters: expressed in transfected cells; host or cells: oocytes; details: 1 μM
Target sequence in this assay (O75762 whole entry, species assumed): as the sequence (O75762 whole entry) above

SMILES | activation of TRPV1-expressing cells, relative to TRPV1 response from saturating amounts of capsaicin (TRPV1 [1]) | specificity to mTRPA1 when tested against TRPM8 and TRPV1 (mouse TRPA1; 600 μM) | increase in intracellular calcium upon application (mouse TRPA1; FLIPR, mTRPA1 CHO cells) | response of capsaicin-insensitive neurons (adult rat DRG neurons) | DRG neuron population activated at high concentrations (adult rat DRG neurons; dilution 1:50 for garlic, 100 μM allicin) | DRG neuron population activated at low concentrations (adult rat DRG neurons; dilution 1:500 for garlic, 10 μM allicin) | calcium response of TRPA1-expressing CHO cells (mTRPA1) | EC50 (TRPA1 [2]) | EC50 (mouse TRPA1; FLIPR, mTRPA1, read-out: concentration for half maximal activation (EC50)) | calcium response of TRPV1-expressing CHO cells (TRPV1 [3]) | activation of TRPA1-expressing oocytes (TRPA1 [4])
COC(=O)c1ccccc1O [Methyl salicylate] | 25% | specific to mTRPA1 | sharp increase in intracellular calcium | – | – | – | – | – | – | – | –
C=CCS[S+]([O-])CC=C (centres unmarked) [allicin, diallyl disulfide oxide] | – | – | – | never responded | activated the majority of capsaicin-sensitive DRG neurons | activated only the cinnamaldehyde-sensitive neurons | immediate and strong calcium response | 1910 nM | 1320 nM | immediate and strong calcium response | able to activate
